Results on nine substances are retold here after patent KR19980042868A, “인슐린-유사 작용을 갖는 이노시톨글리칸” (피셔 한스-위르겐, priority 1996, dated 1998).

The subject of experiment [1] is rat adipocytes (랫트 지방 세포). Kind of experiment: Lipogenesis (지방형성): incorporation of D-[3-3H]glucose into toluene-soluble lipids in isolated rat adipocytes. It is filed as cell-based. Particulars: 90 min, 37°C; for EC50: concentration giving 50% of the compound's own maximum stimulation; for %Insmax: maximum insulin stimulation ratio (with/without insulin) = 100%.
Experiment [2] has as its system rat adipocytes (랫트 지방 세포). Nature of the experiment: Glucose transport (글루코오스 이송): uptake of 2-[3H]-deoxyglucose in isolated rat adipocytes. Particulars: 15 min, 37°C, then 2-[3H]-deoxyglucose at room temperature; for EC50: concentration giving 50% of the compound's own maximum stimulation; for %Insmax: maximum insulin stimulation ratio = 100%. It is filed as cell-based.

For orientation: EC50 means the concentration that produces a half-maximal response. With HO-PO(H)O-6Manα1-4GluNα1-6(L)이노시톨, in experiment [1], the EC50 is 25 µM and the “%Insmax” value is 15%. Also, in experiment [2], a half-maximal effect (EC50) was put at 10 µM and the “%Insmax” value is 2%.
The matching figures for “HO-PO(H)O-6Manα1(Manα1-2)-2Manα1-6Manα1-4GluNβ1-6(D)이노시톨-1,2-(사이클릭)-포스페이트 [화합물 B]”: 8.2 µM, 77%, 8.1 µM and 41%.
For “HO-PO(H)O-6Manα1(Manα1-2)-2Manα1(6-EtNP)-6Manα1(2-EtNP)-4GluNβ1-6(D)이노시톨-1,2-(사이클릭)-포스페이트”, the EC50 in experiment [1] was 60 µM; in experiment [2], 30 µM. Moreover, the figures for the “%Insmax” value in experiment [1] and in experiment [2] were 48% and 34%, respectively.
The matching figures for “HO-PO(H)O-6Manα1-4GluNα1-6(L)이노시톨-1,2-(사이클릭)-포스페이트”: 15 µM, 15 µM, 25% and 9%.
The matching figures for “HO-PO(H)O-6Manα1(Manα1-2)-2Manα1-6Manα1-4GluNβ1-6(D)이노시톨-1,2-(사이클릭)-티오포스페이트 [C]”: 7 µM, 10 µM, 64% and 29%.
The matching figures for “HO-PO(H)O-6Manα1(Manα1-2)-2Manα1-6Manα1-4GluNα1-6(L)이노시톨-2-포스페이트 [F]”: 15 µM, 25 µM, 53% and 26%.
Consider “HO-PO(H)O-6Manα1(Manα1-2)-2Manα1-6Manα1-3GluNβ1-6(L)이노시톨-3-포스페이트 [D]”, for which the EC50 in experiment [1] was 20 µM; in experiment [2], 18 µM. In addition, the “%Insmax” value came to 33% in experiment [1] and 18% in experiment [2].
On to “HO-PO(H)O-6Manα1-6-Manα1-6Manα1-6Manα1-3GluNβ1-6(L)이노시톨-3-포스페이트 [I]”, for which, in experiment [1], the EC50 came out at 20 µM and the “%Insmax” value turned out to be 18%. In experiment [2], the EC50 came to 50 µM and the “%Insmax” value worked out at 14%.
The matching figures for “HO-PO(H)O-6Manα(Manα1-2)-2Manα1-6Manα1-4GluNβ1-6(L)이노시톨-1,2-(사이클릭)-포스페이트 [화합물 A]”: 7 µM, 59%, 8 µM and 28%.
